Where two headings read alike, the source gives them in different places.
What was measured:
[1] = tested on: SW620C; test: Neutral red uptake antiproliferative assay, MDR line SW620C; format: cell-based, human; conditions: for IC50: exposure time 72 h, n = 3, ABCG2-overexpressing MDR line
Description: (§1) Next, we evaluated the cytotoxicity of the synthesized complexes toward the panel of six multidrug-resistant (MDR) cell lines derived from SW620 and characterized by the overexpression of various ABC proteins, namely, ABCG2 (SW620C and SW620Mito), ABCC1 (SW620M and SW620E), and ABCB1 (SW620D, SW620E, and SW620V) (Table 3, Figures S29 and S32). […] The activity of the complexes derived from the ligand (S)-2 is also considerably higher than that of the compounds containing the ligand (R)-2. The cytotoxicity of both rhodium 4c and iridium 4d complexes is higher than that of amine (S)-1. In the case of 4c, the increase in cytotoxicity is low, with the highest value of 3.7-fold for the SW620Mito line. […] Compound 4d also exerts a 2.1- and 2.6-fold higher cytotoxicity than […] against the SW620C and SW620D lines.
(§2) For this purpose, neutral red uptake assay was performed. […] The results were presented as a percentage of control.

[2] = tested on: SW620M; test: Neutral red uptake antiproliferative assay, MDR line SW620M; format: cell-based, human; conditions: for IC50: exposure time 72 h, n = 3, ABCC1-overexpressing MDR line
Description: as §1, §2

[3] = tested on: SW620V; test: Neutral red uptake antiproliferative assay, MDR line SW620V; format: cell-based, human; conditions: for IC50: exposure time 72 h, n = 3, ABCB1-overexpressing MDR line
Description: as §1, §2

[4] = tested on: SW620; test: Neutral red uptake antiproliferative assay, SW620; format: cell-based, human; conditions: for IC50: exposure time 72 h, n = 3, 95% CI given
Description: (§3) To assess the impact of conjugating half-sandwich complexes with amines 1 via an imine-pyridine ligand on biological activity, we examined the antiproliferative potential of (R)- and (S)-1 and organometallic conjugates 3a–d and 4a–d in selected human cancer cell lines: alveolar basal epithelial cell adenocarcinoma (A549), colorectal adenocarcinomas (Colo205 and SW620), colorectal carcinoma (HCT116), hepatocellular carcinoma (HepG2), and breast adenocarcinoma (MCF7). The choice of cell lines was dictated by results of previously published clinical trials on ispinesib.[49],[50]
(§4) Cell lines used in this study were purchased from the American Type Culture Collection via LGC Standards. Human normal lung fibroblasts (MRC-5), alveolar basal epithelial cell adenocarcinoma (A549), colorectal adenocarcinoma (Colo205), hepatocellular carcinoma (HepG2), breast adenocarcinoma (MCF7), and colorectal adenocarcinoma (SW620) and its MDR variants[55] were cultured in standard conditions (37 °C, 5% CO2, 100% relative humidity) in high glucose DMEM medium supplemented with GlutaMax, HEPES (ThermoFisher Scientific) and 10% fetal bovine serum (EURx, Poland). All cell lines were tested for Mycoplasma contamination using a MycoProbe mycoplasma detection kit (R&D System).
(§5) For this purpose, neutral red uptake assay was performed. 10^4 of cells were seeded per well of a 96-well plate and left overnight to allow cells to attach to the surface. Then, the cells were exposed to a desired concentration of tested compounds. Stock solutions were prepared in DMSO and were used immediately after preparation. The final concentration of DMSO was constant and nontoxic (0.1% v/v). After 70 h of culture, neutral red was added to the final concentration of 1 mM. After 2 h of incubation with the dye, the medium was aspirated and cells were washed with ice-cold PBS. The dye was released using 100 μL of the solubilizer (1% acetic acid in 50% ethanol) on an orbital shaker (10 min). The absorbance at 540 nm was measured using an EnVision multilabel plate reader (PerkinElmer). […] The IC90 and IC50 parameters were calculated using GraphPad Prism v9 software using the five-parameter nonlinear logistic regression model.

[5] = tested on: HCT116; test: cells; conditions: for IC50: read-out: IC50 HCT116
Description: as §3, §5

[6] = tested on: SW620E; test: Neutral red uptake antiproliferative assay, MDR line SW620E; format: cell-based, human; conditions: for IC50: exposure time 72 h, n = 3, ABCC1- and ABCB1-overexpressing MDR line
Description: as §1, §2

[7] = tested on: Colo205; test: cells; conditions: for IC50: read-out: IC50 Colo205
Description: as §3, §4, §5

[8] = tested on: MCF7; test: cells; conditions: for IC50: read-out: IC50 MCF7
Description: as §3, §4, §5

[9] = tested on: HepG2; test: cells; conditions: for IC50: read-out: IC50 HepG2
Description: as §3, §4, §5

[10] = tested on: SW620Mito; test: Neutral red uptake antiproliferative assay, MDR line SW620Mito; format: cell-based, human; conditions: for IC50: exposure time 72 h, n = 3, ABCG2-overexpressing MDR line
Description: as §1, §2

[11] = tested on: SW620D; test: Neutral red uptake antiproliferative assay, MDR line SW620D; format: cell-based, human; conditions: for IC50: exposure time 72 h, n = 3, ABCB1-overexpressing MDR line
Description: as §1, §2

[12] = tested on: A549; test: Neutral red uptake antiproliferative assay, A549; conditions: for IC50: read-out: IC50 A549
Description: as §3, §4, §5

[13] = tested on: SW620 cells; test: Cell cycle distribution by flow cytometry, SW620; format: cell-based, human; conditions: concentration equal to IC75 of (S)-1 / (R)-1, mean ± SEM, n = 3; for Cell cycle fraction G1, 24 h / Cell cycle fraction G2/M, 24 h / Cell cycle fraction S, 24 h: SW620, 24 h; for Cell cycle fraction G1, 48 h / Cell cycle fraction G2/M, 48 h / Cell cycle fraction S, 48 h: SW620, 48 h
Experimental: Ispinesib leads to the formation of monopolar mitotic spindles and a blockade of chromosome segregation in cancer cells. Using flow cytometry, we assessed the cell cycle distribution in the SW620 and SW620E cells exposed to the studied compounds for 24 and 48 h. […] Both complexes, 3c and 3d, decrease the percentage of cells in the G1/G0 phase and increase the percentage in the S and G2/M phases. […] Furthermore, prolonged exposure to the compounds increases the percentage of cells in the G2/M phase, with the most intensive effect observed for 3c and 3d.
SW620 and SW620E cells lines (vulnerable and resistant variants, respectively) were seeded in 6-well plates at a density of 10^5 cells per well. […] After 24 h, the cells were trypsinized and fixed with ice-cold 70% v/v ethanol. The cells were stained with 75 μM propidium iodide with 50 Kunitz units of RNase A in PBS for 30 min at 37 °C. All samples were analyzed using a LSRII flow cytometer (Becton Dickinson) at a PE channel ([…]). Cell cycle phase distribution was determined using a built-in cell cycle module (Watson pragmatic algorithm) by FlowJo 7.6.1 software.

[14] = biological target: T1, KSP (Homo sapiens, UniProt P52732); test: Kinesin ATPase inhibition (ATP hydrolysis) end-point assay; format: biochemical; conditions: 100 nM stated for ispinesib and (R)-1; concentration not restated for the complexes
T1 construct: purchased Cytoskeleton, Inc
T1 sequence (P52732 1-368 limits assumed): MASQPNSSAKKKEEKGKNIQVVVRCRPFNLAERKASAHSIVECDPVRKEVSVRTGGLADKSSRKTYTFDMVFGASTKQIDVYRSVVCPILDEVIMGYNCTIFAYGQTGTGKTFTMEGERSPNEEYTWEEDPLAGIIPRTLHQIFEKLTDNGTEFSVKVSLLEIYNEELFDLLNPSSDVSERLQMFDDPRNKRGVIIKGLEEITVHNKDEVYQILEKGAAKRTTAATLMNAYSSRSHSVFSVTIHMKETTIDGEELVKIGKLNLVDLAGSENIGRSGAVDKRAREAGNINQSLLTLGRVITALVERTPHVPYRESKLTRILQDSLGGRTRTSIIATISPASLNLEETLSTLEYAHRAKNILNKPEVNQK
Experimental: The mechanism of the anticancer activity of ispinesib is related to the inhibition of the activity of the KSP. Thus, we studied the synthesized compounds’ ability to inhibit KSP activity using the adenosine 5′-triphosphate (ATP) hydrolysis assay.
The potential kinesin modulatory activity of tested compounds was performed using a Kinesin ATPase end-point biochem kit (Cytoskeleton, Inc.). […] The experiment was performed according to the manufacturer’s instructions. One μg of tested kinesin (KSP) was used per reaction. Phosphate release was measured at the absorbance 650 nm using an EnVision multilabel plate reader (PerkinElmer).

[15] = vs corresponding amine (R)-1 or (S)-1, 72 h
[16] = exposure time 72 h, n = 3, 95% CI given

CC(C)[C@H](N)c1nc2cc(Cl)ccc2c(=O)n1Cc1ccccc1 [(S)-1, reference compound] was tested, and the IC50 ([1]; Homo sapiens) was 3.33 µM, the IC50 ([2]; Homo sapiens) was 3.46 µM and the IC50 ([3]; Homo sapiens) was 3.44 µM. The IC50 ([4]; Homo sapiens, SW-620) was 2.87 µM, the IC50 ([5]; Homo sapiens, HCT-116, 72 h) was 8.06 µM and the IC50 ([6]; Homo sapiens) was 4.05 µM. The IC50 ([7]; Homo sapiens, COLO 205, 72 h) was 6.07 µM, the IC50 ([8]; Homo sapiens, MCF7, 72 h) was 3.91 µM and the IC50 ([9]; Homo sapiens, HepG2, 72 h) was 2.4 µM. It also gave an IC50 ([10]; Homo sapiens) of 3.91 µM, an IC50 ([11]; Homo sapiens) of 4.15 µM and an IC50 ([12]; Homo sapiens, A549, 72 h) of 7.05 µM. For the same compound, the “Cell cycle fraction G1, 24 h” value [13] was 41.8 ± 1.2%, the “Cell cycle fraction G2/M, 24 h” value [13] was 37.1 ± 1.2% and the “Cell cycle fraction S, 24 h” value [13] was 19.5 ± 0.3%. The “Cell cycle fraction G1, 48 h” value [13] was 35.2 ± 1.1%, the “Cell cycle fraction G2/M, 48 h” value [13] was 42.5 ± 0.6% and the “Cell cycle fraction S, 48 h” value [13] was 19.9 ± 0.4%.
Compound Cc1ccc(C(=O)N(CCCN)[C@@H](c2nc3cc(Cl)ccc3c(=O)n2Cc2ccccc2)C(C)C)cc1 [ispinesib, reference compound] has a KSP residual activity [14] of 2.2%.
For CC(C)[C@H](N=Cc1ccccn1)c1nc2cc(Cl)ccc2c(=O)n1Cc1ccccc1.Cc1c(C)c(C)[c-](C)c1C.F[P-](F)(F)(F)(F)F.[Cl-].[Rh+3] [Compound 4c, [(Cp*)Rh((S)-2)Cl]PF6], the IC50 [1] was 2.97 µM, the “activity factor IC50(1)/IC50(3a–4d), SW620C” value [1, 15] was “(1.12)” and the IC50 [2] was 2.25 µM. The “activity factor IC50(1)/IC50(3a–4d), SW620M” value [2, 15] was “(1.54)”, the IC50 [3] was 2.98 µM and the “activity factor IC50(1)/IC50(3a–4d), SW620V” value [3, 15] was “(1.15)”. For the same compound, the IC50 [4] was 2.24 µM, the “activity factor IC50(1)/IC50(3a–4d), SW620” value [4, 15] was “(1.28)” and the IC50 [5, 16] was 2.94 µM. For the same compound, the “activity factor IC50(1)/IC50(3a–4d), HCT116” value [5, 15] was “(2.74)”, the IC50 [6] was 6.2 µM and the “activity factor IC50(1)/IC50(3a–4d), SW620E” value [6, 15] was “(0.653)”. The IC50 [7, 16] was 2.89 µM, the “activity factor IC50(1)/IC50(3a–4d), Colo205” value [7, 15] was “(2.10)” and the IC50 [8, 16] was 1.5 µM. The “activity factor IC50(1)/IC50(3a–4d), MCF7” value [8, 15] was “(2.61)”, the IC50 [9, 16] was 1.15 µM and the “activity factor IC50(1)/IC50(3a–4d), HepG2” value [9, 15] was “(2.09)”. For the same compound, the IC50 [10] was 1.05 µM, the “increase in cytotoxicity vs corresponding amine 1, SW620Mito” value ([10]; rounded value) was 3.7 fold and the “activity factor IC50(1)/IC50(3a–4d), SW620Mito” value [10, 15] was “(3.72)”. The IC50 [11] was 6.07 µM, the “activity factor IC50(1)/IC50(3a–4d), SW620D” value [11, 15] was “(0.684)” and the IC50 [12, 16] was 3.79 µM. For the same compound, the “activity factor IC50(1)/IC50(3a–4d), A549” value [12, 15] was “(1.86)”, the “Cell cycle fraction G1, 24 h” value [13] was 52.6 ± 1.9% and the “Cell cycle fraction G2/M, 24 h” value [13] was 32.7 ± 2.0%. The “Cell cycle fraction S, 24 h” value [13] was 13.6 ± 0.3%, the “Cell cycle fraction G1, 48 h” value [13] was 41.6 ± 1.0% and the “Cell cycle fraction G2/M, 48 h” value [13] was 43.8 ± 1.4%. For the same compound, the “Cell cycle fraction S, 48 h” value [13] was 13.7 ± 0.4%.
